Data: patent US10941147B2, “Bicyclic heteroaryl derivatives” (Hoffmann-La Roche Inc., priority 2016, dated 2021)

Target: T1, γ-secretase (Homo sapiens, UniProt P49768)
T1 construct: Human neuroglioma H4 cells overexpressing human APP695; endogenous in cells; host or cells: human neuroglioma H4 cells stably overexpressing human APP695 Swedish
Assay: Cellular γ-secretase assay (inhibition of Aβ42 secretion, AlphaLisa)
Assay type: cell-based
Details: Human neuroglioma H4 cells overexpressing human APP695 Swedish double mutation; 24 hr compound incubation; secreted Aβ42 in supernatant
Method: Description of γ-Secretase Assay
Cellular γ-Secretase Assay
Human neuroglioma H4 cells overexpressing human APP695 with the Swedish double mutation (K595N/M596L) were plated at 30,000 cells/well/100 al in 96-well plates in IMDM media containing 10% FCS, […] Hygromycin B and incubated at 37° C., 5% CO2.
3-4 hr post plating, compounds are a diluted in media and 50 μl is added as 1.5-fold concentrate to achieve the final concentration. Compound incubation is performed for 24 hr. Final doses typically range from 4 μM down to 0.0013 μM in half-log steps resulting in a eight point dose response curve.
Appropriate controls using vehicle only and reference compound were applied to this assay. The final concentration of Me2SO was 0.4%.
After incubation at 37° C., 5% CO2, the supernatant was subjected to quantification of secreted Aβ42 by the means of an AlphaLisa assay kit (Human Amyloid beta 1-42 Kit: Cat #AL203C, Perkin Elmer). 20 μl of the cell culture supernatant was transferred to an assay plate. Then 10 μl of a mixture of the AlphaLisa coupled capture antibody and the biotinylated detection antibody was added and incubated for 3 hours at room temperature while softly shaking the assay plate. After a further addition of 20 μl of the Donor beads the assay plate was incubated for 30 min at room temperature and constant shaking without exposure to direct light. The assay plate was then read on a Paradigm AlphaLisa Reader using the build-in program with excitation at 680 nm and emission at […].
The measured signals were then used to calculate IC50 values for inhibition of Aβ42 secretion by nonlinear regression fit analysis using XLfit 5.3 software (IDBS).

SMILES | EC50 [nM]
Fc1ccc([C@H]2CCCCn3nc(N[C@@H]4[C@@H]5CC[C@H]4CN(c4cc(Cl)ncn4)C5)nc32)c(F)c1F [Example 19, (9R)—N-[(1R,5S,8S)-3-(6-chloropyrimidin-4-yl)-3-azabicyclo[3.2.1]octan-8-yl]-9-(2,3,4-trifluorophenyl)-6,7,8,9-tetrahydro-5H-[1,2,4]triazolo[1,5-a]azepin-2-amine] | 12.5
Cc1cc(N2C[C@H]3CC[C@@H](C2)[C@@H]3Nc2nc3n(n2)CCCCC3c2ccc(C(F)(F)F)cc2)ncn1 (mixture of isomers) [Example 3, N-[(1R,5S,8S)-3-(6-methylpyrimidin-4-yl)-3-azabicyclo[3.2.1]octan-8-yl]-9-[4-(trifluoromethyl)phenyl]-6,7,8,9-tetrahydro-5H-[1,2,4]triazolo[1,5-a]azepin-2-amine] | 20.6
Cc1cc(N2C[C@H]3CC[C@@H](C2)[C@@H]3Nc2nc3n(n2)CCCC[C@@H]3c2ccc(Cl)cc2)ncn1 [Example 9, (9R)-9-(4-chlorophenyl)-N-[(1R,5S,8S)-3-(6-methylpyrimidin-4-yl)-3-azabicyclo[3.2.1]octan-8-yl]-6,7,8,9-tetrahydro-5H-[1,2,4]triazolo[1,5-a]azepin-2-amine] | 48.9
Cc1cc(N2C[C@H]3CC[C@@H](C2)[C@@H]3Nc2nc3n(n2)CCCC[C@@H]3c2cccc(C(F)(F)F)c2)ncn1 [Example 13, (9R)—N-[(1R,5S,8S)-3-(6-methylpyrimidin-4-yl)-3-azabicyclo[3.2.1]octan-8-yl]-9-[3-(trifluoromethyl)phenyl]-6,7,8,9-tetrahydro-5H-[1,2,4]triazolo[1,5-a]azepin-2-amine] | 15
Cc1cc(N2C[C@H]3CC[C@@H](C2)[C@@H]3Nc2nc3n(n2)CCCCC3c2ccc(Cl)cc2)ncn1 (mixture of isomers) [Example 7, 9-(4-chlorophenyl)-N-[(1R,5S,8S)-3-(6-methylpyrimidin-4-yl)-3-azabicyclo[3.2.1]octan-8-yl]-6,7,8,9-tetrahydro-5H-[1,2,4]triazolo[1,5-a]azepin-2-amine] | 23.4
Fc1ccc([C@@H]2CCCCn3nc(N[C@@H]4[C@@H]5CC[C@H]4CN(c4cc(Cl)ncn4)C5)nc32)c(F)c1F [Example 18, (9S)—N-[(1R,5S,8S)-3-(6-chloropyrimidin-4-yl)-3-azabicyclo[3.2.1]octan-8-yl]-9-(2,3,4-trifluorophenyl)-6,7,8,9-tetrahydro-5H-[1,2,4]triazolo[1,5-a]azepin-2-amine] | 12.4
Cc1cc(N2C[C@H]3CC[C@@H](C2)[C@@H]3Nc2nc3n(n2)CCCC[C@H]3c2cccc(C(F)(F)F)c2)ncn1 [Example 12, (9S)—N-[(1R,5S,8S)-3-(6-methylpyrimidin-4-yl)-3-azabicyclo[3.2.1]octan-8-yl]-9-[3-(trifluoromethyl)phenyl]-6,7,8,9-tetrahydro-5H-[1,2,4]triazolo[1,5-a]azepin-2-amine] | 14.9
Cc1cc(N2C[C@H]3CC[C@@H](C2)[C@@H]3Nc2nc3n(n2)CCCC[C@H]3c2ccc(Cl)cc2)ncn1 [Example 8, (9S)-9-(4-chlorophenyl)-N-[(1R,5S,8S)-3-(6-methylpyrimidin-4-yl)-3-azabicyclo[3.2.1]octan-8-yl]-6,7,8,9-tetrahydro-5H-[1,2,4]triazolo[1,5-a]azepin-2-amine] | 31.9
Cc1cc(N2C[C@H]3CC[C@@H](C2)[C@@H]3Nc2nc3n(n2)CCCCC3c2cccc(C(F)(F)F)c2)ncn1 (mixture of isomers) [Example 11, N-[(1R,5S,8S)-3-(6-methylpyrimidin-4-yl)-3-azabicyclo[3.2.1]octan-8-yl]-9-[3-(trifluoromethyl)phenyl]-6,7,8,9-tetrahydro-5H-[1,2,4]triazolo[1,5-a]azepin-2-amine] | 28
Cc1cc(N2C[C@H]3CC[C@@H](C2)[C@@H]3Nc2nc3n(n2)CCCCC3c2ccc(F)c(F)c2F)ncn1 (mixture of isomers) [Example 14, N-[(1R,5S,8S)-3-(6-methylpyrimidin-4-yl)-3-azabicyclo[3.2.1]octan-8-yl]-9-(2,3,4-trifluorophenyl)-6,7,8,9-tetrahydro-5H-[1,2,4]triazolo[1,5-a]azepin-2-amine] | 12.6
Cc1cc(N2C[C@H]3CC[C@@H](C2)[C@@H]3Nc2nc3n(n2)CCCC[C@H]3c2ccc(C(F)(F)F)cc2)ncn1 [Example 4, (9S)—N-[(1R,5S)-3-(6-methylpyrimidin-4-yl)-3-azabicyclo[3.2.1]octan-8-yl]-9-[4-(trifluoromethyl)phenyl]-6,7,8,9-tetrahydro-5H-[1,2,4]triazolo[1,5-a]azepin-2-amine] | 37.4
Cc1ncnc(N2C[C@H]3CC[C@@H](C2)[C@@H]3Nc2nc3n(n2)CCCCC3c2ccc(F)c(F)c2F)c1F (stereo partly drawn) [Example 22, N-[(1R,5S,8S)-3-(5-fluoro-6-methyl-pyrimidin-4-yl)-3-azabicyclo[3.2.1]octan-8-yl]-9-(2,3,4-trifluorophenyl)-6,7,8,9-tetrahydro-5H-[1,2,4]triazolo[1,5-a]azepin-2-amine] | 30.3
COc1cc(N2C[C@H]3CC[C@@H](C2)[C@@H]3Nc2nc3n(n2)CCCCC3c2ccc(F)c(F)c2F)ccn1 (stereo partly drawn) [Example 20, N-[(1R,5S,8S)-3-(2-methoxy-4-pyridyl)-3-azabicyclo[3.2.1]octan-8-yl]-9-(2,3,4-trifluorophenyl)-6,7,8,9-tetrahydro-5H-[1,2,4]triazolo[1,5-a]azepin-2-amine] | 8.5
Cc1cc(N2C[C@H]3CC[C@@H](C2)[C@@H]3Nc2nc3n(n2)CCCC[C@@H]3c2ccc(F)c(F)c2F)ncn1 [Example 16, (9R)—N-[(1R,5S,8S)-3-(6-methylpyrimidin-4-yl)-3-azabicyclo[3.2.1]octan-8-yl]-9-(2,3,4-trifluorophenyl)-6,7,8,9-tetrahydro-5H-[1,2,4]triazolo[1,5-a]azepin-2-amine] | 7.1
COc1cc(N2C[C@H]3CC[C@@H](C2)[C@@H]3Nc2nc3n(n2)CCCCC3c2ccc(F)c(F)c2F)ncn1 (stereo partly drawn) [Example 21, N-[(1R,5S,8S)-3-(6-methoxypyrimidin-4-yl)-3-azabicyclo[3.2.1]octan-8-yl]-9-(2,3,4-trifluorophenyl)-6,7,8,9-tetrahydro-5H-[1,2,4]triazolo[1,5-a]azepin-2-amine] | 53.4
Fc1ccc(C2CCCCn3nc(N[C@@H]4[C@@H]5CC[C@H]4CN(c4ccnc(C(F)(F)F)c4)C5)nc32)c(F)c1F (stereo partly drawn) [Example 1, N-[(1R,5S,8S)-3-[2-(trifluoromethyl)-4-pyridyl]-3-azabicyclo[3.2.1]octan-8-yl]-9-(2,3,4-trifluorophenyl)-6,7,8,9-tetrahydro-5H-[1,2,4]triazolo[1,5-a]azepin-2-amine] | 34.6
Fc1ccc(C2CCCCn3nc(N[C@@H]4[C@@H]5CC[C@H]4CN(c4cc(Cl)ncn4)C5)nc32)c(F)c1F (mixture of isomers) [Example 17, N-[(1R,5S,8S)-3-(6-chloropyrimidin-4-yl)-3-azabicyclo[3.2.1]octan-8-yl]-9-(2,3,4-trifluorophenyl)-6,7,8,9-tetrahydro-5H-[1,2,4]triazolo[1,5-a]azepin-2-amine] | 17.7
Cc1cc(N2C[C@H]3CC[C@@H](C2)C3Nc2nc3n(n2)CCCC[C@@H]3c2ccc(C(F)(F)F)cc2)ncn1 (stereo partly drawn) [Example 5, (9R)—N-[(1R,5S)-3-(6-methylpyrimidin-4-yl)-3-azabicyclo[3.2.1]octan-8-yl]-9-[4-(trifluoromethyl)phenyl]-6,7,8,9-tetrahydro-5H-[1,2,4]triazolo[1,5-a]azepin-2-amine] | 11.6
FC(F)(F)c1ccc(C2CCCCn3nc(N[C@@H]4[C@@H]5CC[C@H]4CN(c4ccnc(C(F)(F)F)c4)C5)nc32)cc1 (stereo partly drawn) [Example 2, 9-[4-(trifluoromethyl)phenyl]-N-[(1R,5S,8S)-3-[2-(trifluoromethyl)-4-pyridyl]-3-azabicyclo[3.2.1]octan-8-yl]-6,7,8,9-tetrahydro-5H-[1,2,4]triazolo[1,5-a]azepin-2-amine] | 48.4
FC(F)(F)c1cccc(C2CCCCn3nc(N[C@@H]4[C@@H]5CC[C@H]4CN(c4ccnc(C(F)(F)F)c4)C5)nc32)c1 (stereo partly drawn) [Example 10, 9-[3-(trifluoromethyl)phenyl]-N-[(1R,5S,8S)-3-[2-(trifluoromethyl)-4-pyridyl]-3-azabicyclo[3.2.1]octan-8-yl]-6,7,8,9-tetrahydro-5H-[1,2,4]triazolo[1,5-a]azepin-2-amine] | 33.7
FC(F)(F)c1cc(N2C[C@H]3CC[C@@H](C2)[C@@H]3Nc2nc3n(n2)CCCCC3c2ccc(Cl)cc2)ccn1 (stereo partly drawn) [Example 6, 9-(4-chlorophenyl)-N-[(1R,5S,8S)-3-[2-(trifluoromethyl)-4-pyridyl]-3-azabicyclo[3.2.1]octan-8-yl]-6,7,8,9-tetrahydro-5H-[1,2,4]triazolo[1,5-a]azepin-2-amine] | 50.6
Cc1cc(N2C[C@H]3CC[C@@H](C2)[C@@H]3Nc2nc3n(n2)CCCC[C@H]3c2ccc(F)c(F)c2F)ncn1 [Example 15, (9S)—N-[(1R,5S,8S)-3-(6-methylpyrimidin-4-yl)-3-azabicyclo[3.2.1]octan-8-yl]-9-(2,3,4-trifluorophenyl)-6,7,8,9-tetrahydro-5H-[1,2,4]triazolo[1,5-a]azepin-2-amine] | 8.4
